Experimental data: patent US8530667B2, “Herbicides” (Syngenta Limited, priority 2007, dated 2013)

Columns and labels:
Format in all cases: in vivo
[1] = test system: Alopecurus myosuroides (ALOMY); experiment: Example A post-emergence herbicidal activity, glasshouse pot test; settings: Rate 125 g/ha, evaluated 14 or 15 days later, read-out: Post-Emergence Activity ALOMY (100=total damage to plant; 0=no damage to plant)
Method: (§1) Seeds of a variety of test species were sown in standard soil in pots. After cultivation for one day (pre-emergence) or after 10 days cultivation (post-emergence) under controlled conditions in a glasshouse, the plants were sprayed with an aqueous spray solution derived from the formulation of the technical active ingredient in 0.6 ml acetone and 45 ml formulation solution containing 10.6% Emulsogen EL (Registry number 61791-12-6), 42.2% N-methylpyrrolidone, 42.2% dipropylene glycol monomethyl ether (Registry number 34590-94-8) and 0.2% X-77 (Registry number 11097-66-8). The test plants were then grown in a greenhouse under optimum conditions until, 14 or 15 days later for post-emergence and 19 or 20 days for pre-emergence, the test was evaluated (100=total damage to plant; 0=no damage to plant). Alopecurus myosuroides (ALOMY), Avena fatua (AVEFA), Lolium perenne (LOLPE), Setaria faberi (SETFA), Digitaria sanguinalis (DIGSA), Echinochloa crus-galli (ECHCG)

[2] = test system: Setaria faberi (SETFA); experiment: as above; settings: Rate 125 g/ha, evaluated 14 or 15 days later, read-out: Post-Emergence Activity SETFA (100=total damage to plant; 0=no damage to plant)
Method: as §1

[3] = test system: Lolium perenne (LOLPE); experiment: as above; settings: Rate 125 g/ha, evaluated 14 or 15 days later, read-out: Post-Emergence Activity LOLPE (100=total damage to plant; 0=no damage to plant)
Method: as §1

[4] = test system: Digitaria sanguinalis (DIGSA); experiment: as above; settings: Rate 125 g/ha, evaluated 14 or 15 days later, read-out: Post-Emergence Activity DIGSA (100=total damage to plant; 0=no damage to plant)
Method: as §1

[5] = test system: Echinochloa crus-galli (ECHCG); experiment: as above; settings: Rate 125 g/ha, evaluated 14 or 15 days later, read-out: Post-Emergence Activity ECHCG (100=total damage to plant; 0=no damage to plant)
Method: as §1

[6] = test system: Avena fatua (AVEFA); experiment: as above; settings: Rate 125 g/ha, evaluated 14 or 15 days later, read-out: Post-Emergence Activity AVEFA (100=total damage to plant; 0=no damage to plant)
Method: as §1

[7] = test system: Alopecurus myosuroides (ALOMY); experiment: Example A pre-emergence herbicidal activity, glasshouse pot test; settings: evaluated 19 or 20 days later, read-out: Pre-Emergence Activity ALOMY (100=total damage to plant; 0=no damage to plant); for pest or weed control at 500 g/ha: Rate 500 g/ha; for pest or weed control at 250 g/ha: Rate 250 g/ha
Method: as §1

[8] = test system: Setaria faberi (SETFA); experiment: as above; settings: evaluated 19 or 20 days later, read-out: Pre-Emergence Activity SETFA (100=total damage to plant; 0=no damage to plant); for pest or weed control at 500 g/ha: Rate 500 g/ha; for pest or weed control at 250 g/ha: Rate 250 g/ha
Method: as §1

[9] = test system: Lolium perenne (LOLPE); experiment: as above; settings: evaluated 19 or 20 days later, read-out: Pre-Emergence Activity LOLPE (100=total damage to plant; 0=no damage to plant); for pest or weed control at 500 g/ha: Rate 500 g/ha; for pest or weed control at 250 g/ha: Rate 250 g/ha
Method: as §1

[10] = test system: Digitaria sanguinalis (DIGSA); experiment: as above; settings: evaluated 19 or 20 days later, read-out: Pre-Emergence Activity DIGSA (100=total damage to plant; 0=no damage to plant); for pest or weed control at 500 g/ha: Rate 500 g/ha; for pest or weed control at 250 g/ha: Rate 250 g/ha
Method: as §1

[11] = test system: Echinochloa crus-galli (ECHCG); experiment: as above; settings: evaluated 19 or 20 days later, read-out: Pre-Emergence Activity ECHCG (100=total damage to plant; 0=no damage to plant); for pest or weed control at 500 g/ha: Rate 500 g/ha; for pest or weed control at 250 g/ha: Rate 250 g/ha
Method: as §1

[12] = test system: Avena fatua (AVEFA); experiment: as above; settings: evaluated 19 or 20 days later, read-out: Pre-Emergence Activity AVEFA (100=total damage to plant; 0=no damage to plant); for pest or weed control at 500 g/ha: Rate 500 g/ha; for pest or weed control at 250 g/ha: Rate 250 g/ha
Method: as §1

Cc1scc(Br)c1C1C(=O)[C@@H]2[C@H](C1=O)[C@H]1CC[C@@H]2O1 (stereo partly drawn) [Compound T4]
pest or weed control at 125 g/ha [1]: 10%
pest or weed control at 125 g/ha [2]: 40%
pest or weed control at 125 g/ha [3]: 40%
pest or weed control at 125 g/ha [4]: 60%
pest or weed control at 125 g/ha [5]: 80%
pest or weed control at 125 g/ha [6]: 30%
pest or weed control at 500 g/ha [7]: 70%
pest or weed control at 500 g/ha [8]: 70%
pest or weed control at 500 g/ha [9]: 70%
pest or weed control at 500 g/ha [10]: 30%
pest or weed control at 500 g/ha [11]: 70%
pest or weed control at 500 g/ha [12]: 70%

Cc1sc(Br)cc1C1C(=O)[C@@H]2[C@H](C1=O)[C@H]1CC[C@@H]2O1 (stereo partly drawn) [Compound T5]
pest or weed control at 125 g/ha [1]: 10%
pest or weed control at 125 g/ha [2]: 10%
pest or weed control at 125 g/ha [3]: 0%
pest or weed control at 125 g/ha [4]: 30%
pest or weed control at 125 g/ha [5]: 0%
pest or weed control at 125 g/ha [6]: 10%
pest or weed control at 500 g/ha [7]: 0%
pest or weed control at 500 g/ha [8]: 0%
pest or weed control at 500 g/ha [9]: 0%
pest or weed control at 500 g/ha [10]: 0%
pest or weed control at 500 g/ha [11]: 0%
pest or weed control at 500 g/ha [12]: 20%

Cc1sc(-c2ccccn2)cc1C1C(=O)[C@@H]2[C@H](C1=O)[C@H]1CC[C@@H]2O1 (stereo partly drawn) [Compound T6]
pest or weed control at 125 g/ha [1]: 10%
pest or weed control at 125 g/ha [2]: 40%
pest or weed control at 125 g/ha [3]: 10%
pest or weed control at 125 g/ha [4]: 20%
pest or weed control at 125 g/ha [5]: 30%
pest or weed control at 125 g/ha [6]: 10%
pest or weed control at 500 g/ha [7]: 0%
pest or weed control at 500 g/ha [8]: 0%
pest or weed control at 500 g/ha [9]: 0%
pest or weed control at 500 g/ha [10]: 0%
pest or weed control at 500 g/ha [11]: 0%
pest or weed control at 500 g/ha [12]: 60%

Cc1nc(-c2cc(C3C(=O)[C@@H]4[C@H](C3=O)[C@H]3CC[C@@H]4O3)c(C)s2)cs1 (stereo partly drawn) [Compound T7]
pest or weed control at 125 g/ha [1]: 0%
pest or weed control at 125 g/ha [2]: 0%
pest or weed control at 125 g/ha [3]: 0%
pest or weed control at 125 g/ha [4]: 0%
pest or weed control at 125 g/ha [5]: 50%
pest or weed control at 125 g/ha [6]: 0%
pest or weed control at 500 g/ha [7]: 10%
pest or weed control at 500 g/ha [8]: 0%
pest or weed control at 500 g/ha [9]: 10%
pest or weed control at 500 g/ha [10]: 20%
pest or weed control at 500 g/ha [11]: 0%
pest or weed control at 500 g/ha [12]: 10%

Cc1csc(C)c1C1C(=O)[C@@H]2[C@H](C1=O)[C@H]1CC[C@@H]2O1 (stereo partly drawn) [Compound T10]
pest or weed control at 125 g/ha [1]: 10%
pest or weed control at 125 g/ha [2]: 60%
pest or weed control at 125 g/ha [3]: 20%
pest or weed control at 125 g/ha [4]: 40%
pest or weed control at 125 g/ha [5]: 60%
pest or weed control at 125 g/ha [6]: 40%
pest or weed control at 250 g/ha [7]: 10%
pest or weed control at 250 g/ha [8]: 0%
pest or weed control at 250 g/ha [9]: 20%
pest or weed control at 250 g/ha [10]: 30%
pest or weed control at 250 g/ha [11]: 30%
pest or weed control at 250 g/ha [12]: 10%

Cc1sc(-c2ccc(Cl)cc2)cc1C1C(=O)[C@@H]2[C@H](C1=O)[C@H]1CC[C@@H]2O1 (stereo partly drawn) [Compound T12]
pest or weed control at 125 g/ha [1]: 80%
pest or weed control at 125 g/ha [2]: 70%
pest or weed control at 125 g/ha [3]: 30%
pest or weed control at 125 g/ha [4]: 80%
pest or weed control at 125 g/ha [5]: 80%
pest or weed control at 125 g/ha [6]: 80%
pest or weed control at 500 g/ha [7]: 10%
pest or weed control at 500 g/ha [8]: 20%
pest or weed control at 500 g/ha [9]: 10%
pest or weed control at 500 g/ha [10]: 0%
pest or weed control at 500 g/ha [11]: 30%
pest or weed control at 500 g/ha [12]: 20%

CCc1c(Br)sc(C)c1C1C(=O)[C@@H]2[C@H](C1=O)[C@H]1CC[C@@H]2O1 (stereo partly drawn) [Compound T14, 4-(5-bromo-4-ethyl-2-methyl-thiophen-3-yl)-10-oxa-tricyclo[5.2.1.0*2,6*]decane-3,5-dione]
pest or weed control at 125 g/ha [1]: 90%
pest or weed control at 125 g/ha [2]: 80%
pest or weed control at 125 g/ha [3]: 80%
pest or weed control at 125 g/ha [4]: 60%
pest or weed control at 125 g/ha [5]: 100%
pest or weed control at 125 g/ha [6]: 100%
pest or weed control at 250 g/ha [7]: 90%
pest or weed control at 250 g/ha [8]: 100%
pest or weed control at 250 g/ha [9]: 100%
pest or weed control at 250 g/ha [10]: 70%
pest or weed control at 250 g/ha [11]: 90%
pest or weed control at 250 g/ha [12]: 60%

CCc1csc(CC)c1C1C(=O)[C@@H]2[C@H](C1=O)[C@H]1CC[C@@H]2O1 (stereo partly drawn) [Compound T15]
pest or weed control at 125 g/ha [1]: 50%
pest or weed control at 125 g/ha [2]: 70%
pest or weed control at 125 g/ha [3]: 40%
pest or weed control at 125 g/ha [4]: 40%
pest or weed control at 125 g/ha [5]: 90%
pest or weed control at 125 g/ha [6]: 40%
pest or weed control at 250 g/ha [7]: 70%
pest or weed control at 250 g/ha [8]: 20%
pest or weed control at 250 g/ha [9]: 10%
pest or weed control at 250 g/ha [10]: 30%
pest or weed control at 250 g/ha [11]: 90%
pest or weed control at 250 g/ha [12]: 10%

Cc1sc(-c2ccc(Cl)cc2)nc1C1C(=O)[C@@H]2[C@H](C1=O)[C@H]1CC[C@@H]2O1 (stereo partly drawn) [Compound T22]
pest or weed control at 125 g/ha [1]: 70%
pest or weed control at 125 g/ha [2]: 60%
pest or weed control at 125 g/ha [3]: 20%
pest or weed control at 125 g/ha [4]: 100%
pest or weed control at 125 g/ha [5]: 100%
pest or weed control at 125 g/ha [6]: 70%
pest or weed control at 250 g/ha [7]: 100%
pest or weed control at 250 g/ha [8]: 100%
pest or weed control at 250 g/ha [9]: 100%
pest or weed control at 250 g/ha [10]: 100%
pest or weed control at 250 g/ha [11]: 100%
pest or weed control at 250 g/ha [12]: 100%

CCc1sc(-c2ccc(Cl)cc2)nc1C1C(=O)[C@@H]2[C@H](C1=O)[C@H]1CC[C@@H]2O1 (stereo partly drawn) [Compound T23, 4-[2-(4-chloro-phenyl)-5-ethyl-thiazol-4-yl]-10-oxa-tricyclo[5.2.1.0*2,6*]decane-3,5-dione]
pest or weed control at 125 g/ha [1]: 100%
pest or weed control at 125 g/ha [2]: 100%
pest or weed control at 125 g/ha [3]: 100%
pest or weed control at 125 g/ha [4]: 100%
pest or weed control at 125 g/ha [5]: 100%
pest or weed control at 125 g/ha [6]: 100%
pest or weed control at 500 g/ha [7]: 100%
pest or weed control at 500 g/ha [8]: 100%
pest or weed control at 500 g/ha [9]: 90%
pest or weed control at 500 g/ha [10]: 100%
pest or weed control at 500 g/ha [11]: 100%
pest or weed control at 500 g/ha [12]: 90%

Cc1sc(-c2ccc(Cl)cc2)nc1C1C(=O)[C@@H]2[C@H](C1=O)[C@@]1(C)CC[C@]2(C)O1 (stereo partly drawn) [Compound T26]
pest or weed control at 125 g/ha [1]: 10%
pest or weed control at 125 g/ha [2]: 0%
pest or weed control at 125 g/ha [3]: 0%
pest or weed control at 125 g/ha [4]: 30%
pest or weed control at 125 g/ha [5]: 0%
pest or weed control at 125 g/ha [6]: 0%
pest or weed control at 250 g/ha [7]: 90%
pest or weed control at 250 g/ha [8]: 100%
pest or weed control at 250 g/ha [9]: 70%
pest or weed control at 250 g/ha [10]: 100%
pest or weed control at 250 g/ha [11]: 80%
pest or weed control at 250 g/ha [12]: 60%
